Measurements taken from patent publication US11839212B2, “Synergistic pesticidal compositions and methods for delivery of insecticidal active ingredients” (0903608 B.C. Ltd., priority 2018, dated 2023).
Like-named read-outs stand apart in the source and are kept apart here. Values belong to the compound of their own block, whether it stands above or below them.

Assays:
Experiment in all cases: Synergistic Growth Inhibition Assay (MIC and FIC index, 96-well, resazurin)
Assay type in all cases: cell-based
[1] = system: Sclerotinia sclerotiorum; conditions: for MIC: Sclerotinia sclerotiorum
Method: (§1) In some embodiments, the synergistic action between the pesticidal active ingredient, and the at least one C6-C10 (or alternatively C11 or C12) saturated or unsaturated aliphatic acid components of the pesticidal compositions according to embodiments of the present disclosure was tested using a Synergistic Growth Inhibition Assay, which is derived from and related to a checkerboard assay as is known in the art for testing of combinations of antimicrobial agents. In the Synergistic Growth Inhibition Assay used in accordance with some embodiments of the present disclosure, multiple dilutions of combinations of pesticidal active ingredient and at least one C6-C10 saturated or unsaturated aliphatic acid agents are tested in individual cells for inhibitory activity against a target pest or pathogenic organism. In one such embodiment, the combinations of pesticidal active ingredient and C6-C10 (or alternatively C11 or C12) saturated or unsaturated aliphatic acid agents may preferably be tested in decreasing concentrations. In a further such embodiment, the combinations of pesticidal active ingredient and C6-C10 (or alternatively C11 or C12) saturated or unsaturated aliphatic acid agents may be tested in increasing concentrations. These multiple combinations of the pesticidal active ingredient and at least one C6-C10 (or alternatively C11 or C12) saturated or unsaturated aliphatic acid agents may be prepared in 96-well microtiter plates. In one such embodiment, the Synergistic Growth Inhibition Assay then comprises rows which each contain progressively decreasing concentrations of the pesticidal active ingredient and one or more C6-C10 (or alternatively C11 or C12) saturated or unsaturated aliphatic acid agents to test for the MIC of the agents in combination at which growth of the target pest or pathogen is inhibited. Thus, each well of the microtiter plate is a unique combination of the two agents, at which inhibitory efficacy of the combination against the target pest or pathogen can be determined.
(§2) In one embodiment according to the present disclosure, for each row of microtiter cells in the Synergistic Growth Inhibition Assay, the FIC index is calculated from the lowest concentration of the pesticidal active ingredient and one or more C6-C10 saturated or unsaturated aliphatic acid agents necessary to inhibit growth of a target pest or pathogen. The FIC of each component is derived by dividing the concentration of the agent present in that well of the microtiter plate by the minimal inhibitory concentration (MIC) needed of that agent alone to inhibit growth of the target pest or pathogen. The FIC index is then the sum of these values for both agents in that well of the microtiter plate. […] Fractional inhibitory concentration indices may then used as measure of synergy. […] When the FIC index is equal to 1, the combination is additive.
(§3) Then, serial dilutions of these initial compositions in successive wells in the row of the microtiter plate were used to assay the pesticidal composition under the same conditions to determine the concentration of the composition combining the two agents corresponding to the microtiter well in which growth inhibition of the target pest or organism ceases.
(§4) Similarly to as described above, Resazurin was used as an indicator of growth or inhibition of growth of Sclerotinia sclerotiorum in the exemplary Synergistic Growth Inhibition Assay. In addition to the color change of the resazurin, an optical or visual examination of the microtiter well may also be made to additionally determine the presence of growth or inhibition of growth of the Sclerotinia sclerotiorum.

[2] = system: Fusarium oxysporum; conditions: for MIC: Fusarium oxysporum
Method: as §1, §2, §3
Resazurin dye (also known as Alamar blue dye) was used as an indicator to determine the presence of growth or inhibition of growth of Fusarium oxysporum in the wells of the 96 well microtiter plates used in the exemplary Synergistic Growth Inhibition Assay. In addition to the color change of the resazurin dye in the presence of growth of the Fusarium oxysporum, an optical or visual examination of the microtiter well may also be made to additionally determine the presence of growth or inhibition of growth of the Fusarium oxysporum.

[3] = system: Botrytis cinerea; conditions: for MIC: Botrytis cinerea, 48 h
Method: as §1, §2, §3
as §4, with “Botrytis cinerea” for “Sclerotinia sclerotiorum”, “Botrytis cinerea.” for “Sclerotinia sclerotiorum.”

[4] = system: Alternaria solani; conditions: Alternaria solani, […], read-out: MIC (B)
Method: as §1, §2, §3
A culture of the representative fungal pathogen, namely Fusarium oxysporum, Botrytis cinerea, or Sclerotinia sclerotiorum, for example, is grown to exponential phase in potato dextrose broth (PDB).

[5] = Table 20B, Compound A alone, incubation 7 days, read-out: MIC (A)
[6] = 48 h, Table 15B, Compound A alone, incubation 48 hours, read-out: MIC (A)
[7] = Table 23, Compound A alone, incubation 48 hours, read-out: MIC (A)
[8] = Table 19, Compound A alone, incubation 7 days, read-out: MIC (A)
[9] = Table 56, Compound B alone, 48 hours incubation, read-out: MIC (B)

SMILES: COC(=O)N(OC)c1ccccc1COc1ccn(-c2ccc(Cl)cc2)n1 [Pyraclostrobin, pyraclostrobin, reference compound]
MIC ([1]; Table 16, Compound A alone, incubation 7 days, read-out: MIC (A)): 7.5 µg/mL | MIC [1, 5]: 3.75 µg/mL | MIC ([1]; Table 33, Compound A alone, 7 days incubation, read-out: MIC (A)): 7.5 µg/mL | MIC ([1]; Table 34, Compound A alone, 7 days incubation, read-out: MIC (A)): 3.75 µg/mL | MIC ([2]; 24 h, Table 1, Compound A alone, 24 hour incubation, read-out: MIC(A)): 15.4 µg/mL | MIC ([2]; 48 h, Table 10, Compound A alone, incubation 48 hours, read-out: MIC (A)): 15 µg/mL | MIC [2, 6]: 15 µg/mL | MIC ([2]; 48 h, Table 27, Compound A alone, 48 hours incubation, read-out: MIC (A)): 15 µg/mL | MIC ([3]; Table 21, Compound A alone, incubation 48 hours, read-out: MIC (A)): 1.9 µg/mL | MIC [3, 7]: 3.75 µg/mL | MIC ([3]; Table 43, Compound A alone, 48 hours incubation, read-out: MIC (A)): 1.88 µg/mL | MIC ([3]; Table 44, Compound A alone, 48 hours incubation, read-out: MIC (A)): 1.88 µg/mL

SMILES: CC1COC(Cn2cncn2)(c2ccc(Oc3ccc(Cl)cc3)cc2Cl)O1 (stereo not shown) [Difenoconazole, reference compound]
MIC ([1]; Table 20A, Compound A alone, incubation 7 days, read-out: MIC (A)): 12.8 µg/mL | MIC [1, 5]: 25.5 µg/mL | MIC ([1]; Table 38, Compound A alone, 7 days incubation, read-out: MIC (A)): 25.5 µg/mL | MIC ([2]; 48 h, Table 14, Compound A alone, incubation 48 hours, read-out: MIC (A)): 51 µg/mL | MIC [2, 6]: 51 µg/mL | MIC ([2]; 48 h, Table 30, Compound A alone, 48 hours incubation, read-out: MIC (A)): 51 µg/mL | MIC ([3]; Table 24, Compound A alone, 48 hours incubation, read-out: MIC (A)): 51 µg/mL

SMILES: O=C(O)CCCCCCCCCCCO [12-Hydroxydodecanoic acid]
MIC [4]: 100 µg/mL | MIC ([3]; read-out: MIC (B), Table 51, Compound B alone, 48 hours incubation): 100 µg/mL | MIC ([3]; read-out: MIC (B), Table 55, Compound B alone, 48 hours incubation): 100 µg/mL | MIC ([3]; read-out: MIC (B), Table 56, Compound B alone, 48 hours incubation): 100 µg/mL | MIC ([3]; read-out: MIC (B), Table 59, Compound B alone, 48 hours incubation): 50 µg/mL

SMILES: CC(C)(C)C(O)(CCc1ccc(Cl)cc1)Cn1cncn1 (stereo not shown) [Tebuconazole, reference compound]
MIC [1, 8]: 225 µg/mL | MIC [1, 5]: 56.2 µg/mL | MIC ([1]; Table 41, Compound A alone, 7 days incubation, read-out: MIC (A)): 112 µg/mL | MIC ([1]; Table 42, Compound A alone, incubation 7 days, read-out: MIC (A)): 112 µg/mL | MIC ([2]; 48 h, Table 15A, Compound A alone, incubation 48 hours, read-out: MIC (A)): 255 µg/mL | MIC [2, 6]: 225 µg/mL | MIC ([2]; 48 h, Table 32, Compound A alone, 48 hours incubation, read-out: MIC (A)): 225 µg/mL | MIC [3, 7]: 112 µg/mL | MIC ([3]; Table 25, Compound A alone, 48 hours incubation, read-out: MIC (A)): 112 µg/mL | MIC ([3]; Table 50, Compound A alone, 48 hours incubation, read-out: MIC (A)): 112 µg/mL

SMILES: Fc1ccc([C@]2(Cn3cncn3)O[C@H]2c2ccccc2Cl)cc1 (racemic) [Epoxiconazole, reference compound]
MIC [1, 8]: 30 µg/mL | MIC [1, 5]: 30 µg/mL | MIC ([1]; Table 40, Compound A alone, 7 days incubation, read-out: MIC (A)): 30 µg/mL | MIC ([2]; 48 h, Table 31, Compound A alone, 48 hours incubation, read-out: MIC (A)): 30 µg/mL | MIC [3, 7]: 30 µg/mL | MIC ([3]; Table 49, Compound A alone, 48 hours incubation, read-out: MIC (A)): 30 µg/mL

MIC ([1]; Table 16, Compound B alone, incubation 7 days, read-out: MIC (B)): 125 µg/mL | MIC ([1]; Table 20B, Compound B alone, incubation 7 days, read-out: MIC (B)): 62.5 µg/mL | MIC ([2]; 48 h, Table 10, Compound B alone, incubation 48 hours, read-out: MIC (B)): 250 µg/mL | MIC ([2]; 48 h, Table 12, Compound B alone, incubation 48 hours, read-out: MIC (B)): 250 µg/mL | MIC ([2]; 48 h, Table 13, Compound B alone, incubation 48 hours, read-out: MIC (B)): 250 µg/mL | MIC ([2]; 48 h, Table 15B, Compound B alone, incubation 48 hours, read-out: MIC (B)): 250 µg/mL | MIC ([3]; Table 51, Compound B alone, 48 hours incubation, read-out: MIC (B)): 62.5 µg/mL | MIC [3, 9]: 125 µg/mL | MIC ([3]; Table 59, Compound B alone, 48 hours incubation, read-out: MIC (B)): 125 µg/mL
SMILES: CCCCCCCC(O)CC(=O)O (stereo not shown) [3-Hydroxydecanoic acid, 3-hydroxydecanoic acid]

MIC ([1]; Table 33, Compound B alone, 7 days incubation, read-out: MIC (B)): 156 µg/mL | MIC ([2]; 24 h, Table 1, Compound B alone, 24 hour incubation, read-out: MIC(B)): 312 µg/mL | MIC ([2]; 24 h, Table 2, Compound B alone, 24 hour incubation, read-out: MIC (B)): 312 µg/mL | MIC ([3]; Table 43, Compound B alone, 48 hours incubation, read-out: MIC (B)): 78.1 µg/mL | MIC ([3]; Table 44, Compound B alone, 48 hours incubation, read-out: MIC (B)): 39.1 µg/mL | MIC ([3]; Table 45, Compound B alone, 48 hours incubation, read-out: MIC (B)): 156 µg/mL | MIC ([3]; Table 52, Compound B alone, 48 hours incubation, read-out: MIC(B)): 156 µg/mL | MIC [3, 9]: 312 µg/mL
SMILES: CCC/C=C/C(=O)O [Trans-2-hexenoic acid, trans-2-hexenoic acid]

SMILES: N#Cc1c(Cl)c(Cl)c(Cl)c(C#N)c1Cl [Chlorothalonil, reference compound]
MIC [1, 5]: 0.0312 µg/mL | MIC ([1]; Table 36, Compound A alone, 7 days incubation, read-out: MIC (A)): 0.0312 µg/mL | MIC ([2]; 48 h, Table 12, Compound A alone, incubation 48 hours, read-out: MIC (A)): 0.125 µg/mL | MIC ([3]; Table 46, Compound A alone, 48 hours incubation, read-out: MIC (A)): 0.0176 µg/mL

SMILES: Cc1cc(C2CC2)nc(Nc2ccccc2)n1 [Cyprodinil, reference compound]
MIC [1, 5]: […] | MIC ([2]; 48 h, Table 13, Compound A alone, incubation 48 hours, read-out: MIC (A)): […] | MIC ([2]; 48 h, Table 29, Compound A alone, 48 hours incubation, read-out: MIC (A)): […] | MIC [3, 7]: 4.5 µg/mL | MIC ([3]; Table 26, Compound A alone, 48 hours incubation, read-out: MIC (A)): 4.5 µg/mL | MIC ([3]; Table 47, Compound A alone, 48 hours incubation, read-out: MIC (A)): 4.5 µg/mL

SMILES: CO/C=C(/C(=O)OC)c1ccccc1Oc1cc(Oc2ccccc2C#N)ncn1 [Azoxystrobin, reference compound]
MIC (A) ([1]; Table 17, Compound A alone, incubation 7 days): 150 µg/mL | MIC (A) ([1]; Table 20B, Compound A alone, incubation 7 days): 75 µg/mL | MIC (A) ([1]; Table 35, Compound A alone, 7 days incubation): 150 µg/mL | MIC (A) ([2]; Table 11, Compound A alone, incubation 48 hours): 75 µg/mL | MIC (A) ([2]; Table 15B, Compound A alone, incubation 48 hours): 150 µg/mL | MIC (A) ([2]; Table 28, Compound A alone, 48 hours incubation): 150 µg/mL | MIC (A) ([3]; Table 23, Compound A alone, incubation 48 hours): 75 µg/mL | MIC (A) ([3]; Table 45, Compound A alone, 48 hours incubation): 75 µg/mL

MIC ([4]; Compound B alone, 7 days incubation): 62.5 µg/mL
SMILES: CCCCCCC(C)CC(=O)O (stereo not shown) [3-Methylnonanoic acid]
